This note sets out measurements from publication PMC12123601, “Light-Induced, Lysine-Targeting Irreversible Covalent Inhibition of the Human Oxygen Sensing Hydroxylase Factor Inhibiting HIF (FIH)” (Journal of the American Chemical Society, 2025).

Where two headings read alike, the source gives them in different places.

The target in one test is T1, FIH^K106A (Homo sapiens, UniProt Q9NWT6, K106A).
T1 construct: encoding for full-length FIH with an N-terminal His6 tag or for FIH (K106A) with an N-terminal His6 tag; His6 (N); host or cells: Escherichia coli BL21
Kind of test: Affinity-based fluorescence polarization (FP) assay with the FIH K106A variant, without and with irradiation. The test is classed as binding. The note with it: read-out: Binding affinity to FIH^K106A: Ki. The source says:
(§1) 4 (A) Light-induced click conjugation between NBA-ZG-2291 and FIH protein. (B) Light-induced binding affinity of NBA-ZG-2291 to FIH^ WT . (C) Light-induced binding affinity of NBA-ZG-2291 to FIH^ K106A . […] TEXT PRINTED IN THE PICTURE: (B) NBA-ZG-2291: Binding affinity to FIH^WT: Ki (nM): 414 ± 14 (Irradtion time (min): 0); Binding affinity to FIH^WT: Ki (nM): 74.1 ± 1.6 (Irradtion time (min): 15); Binding affinity to FIH^WT: Ki (nM): 46.7 ± 1.4 (Irradtion time (min): 30); Binding affinity to FIH^WT: Ki (nM): 33.2 ± 0.6 (Irradtion time (min): 60); Binding affinity to FIH^WT: Ki (nM): 30.2 ± 2.0 (Irradtion time (min): 90); Binding affinity to FIH^WT: Ki (nM): 32.1 ± 0.7 (Irradtion time (min): 120) | (B) Neg-1: Binding affinity to FIH^WT: Ki (nM): 423 ± 7 (Irradtion time (min): 0); Binding affinity to FIH^WT: Ki (nM): 408 ± 30 (Irradtion time (min): 15); Binding affinity to FIH^WT: Ki (nM): 459 ± 32 (Irradtion time (min): 30); Binding affinity to FIH^WT: Ki (nM): 427 ± 17 (Irradtion time (min): 60); Binding affinity to FIH^WT: Ki (nM): 396 ± 29 (Irradtion time (min): 90); Binding affinity to FIH^WT: Ki (nM): 428 ± 15 (Irradtion time (min): 120) | (B) Neg-2: Binding affinity to FIH^WT: Ki (nM): 742 ± 65 (Irradtion time (min): 0); Binding affinity to FIH^WT: Ki (nM): 799 ± 69 (Irradtion time (min): 15); Binding affinity to FIH^WT: Ki (nM): 758 ± 13 (Irradtion time (min): 30); Binding affinity to FIH^WT: Ki (nM): 744 ± 30 (Irradtion time (min): 60); Binding affinity to FIH^WT: Ki (nM): 788 ± 36 (Irradtion time (min): 90); Binding affinity to FIH^WT: Ki (nM): 786 ± 35 (Irradtion time (min): 120) | (C) NBA-ZG-2291: Binding affinity to FIH^K106A: Ki (nM): 442 ± 12 (Irradtion time (min): 0); Binding affinity to FIH^K106A: Ki (nM): 427 ± 22 (Irradtion time (min): 15); Binding affinity to FIH^K106A: Ki (nM): 426 ± 7 (Irradtion time (min): 30); Binding affinity to FIH^K106A: Ki (nM): 420 ± 11 (Irradtion time (min): 60); Binding affinity to FIH^K106A: Ki (nM): 418 ± 5 (Irradtion time (min): 90); Binding affinity to FIH^K106A: Ki (nM): 424 ± 12 (Irradtion time (min): 120) | (C) Neg-1: Binding affinity to FIH^K106A: Ki (nM): 271 ± 14 (Irradtion time (min): 0); Binding affinity to FIH^K106A: Ki (nM): 275 ± 15 (Irradtion time (min): 15); Binding affinity to FIH^K106A: Ki (nM): 268 ± 25 (Irradtion time (min): 30); Binding affinity to FIH^K106A: Ki (nM): 266 ± 22 (Irradtion time (min): 60); Binding affinity to FIH^K106A: Ki (nM): 264 ± 41 (Irradtion time (min): 90); Binding affinity to FIH^K106A: Ki (nM): 270 ± 3 (Irradtion time (min): 120) | (C) Neg-2: Binding affinity to FIH^K106A: Ki (nM): 567 ± 37 (Irradtion time (min): 0); Binding affinity to FIH^K106A: Ki (nM): 548 ± 61 (Irradtion time (min): 15); Binding affinity to FIH^K106A: Ki (nM): 521 ± 50 (Irradtion time (min): 30); Binding affinity to FIH^K106A: Ki (nM): 627 ± 17 (Irradtion time (min): 60); Binding affinity to FIH^K106A: Ki (nM): 565 ± 10 (Irradtion time (min): 90); Binding affinity to FIH^K106A: Ki (nM): 552 ± 38 (Irradtion time (min): 120) […]
To further verify the covalent binding between NBA-ZG-2291 and Lys106, the FIH^ K106A variant was produced and purified.
(§2) 3. Experimental procedures
3.1 Fluorescence polarization (FP) assays1 with FIHWT and FIHK106A pET28a vectors encoding for full-length FIH with an N-terminal His6 tag or for FIH (K106A) with an N-terminal His6 tag were purchased from Nanjing Zoonbio Biotechnology. Both the FIHWT and FIHK106A protein were expressed from the respective plasmid in Escherichia coli BL21 at 20 °C for 16 h. E. coli cells were lysed and the lysate were clarified by centrifugation. His6-tagged FIHWT or FIHK106A was purified on a HisTrap affinity column (GE Healthcare) by elution with an imidazole gradient. The final purified proteins were stored in PBS buffer.
FP assays were carried out using 384 -well plates (#3575, Corning); the polarization signal was measured using a SPARK Multi-Mode Microplate Reader (Tecan). […]

For a further test, the target named is T2, FIH^WT (Homo sapiens, UniProt Q9NWT6).
T2 construct: pET28a vectors encoding for full-length FIH with an N-terminal His6 tag; His6 (N); host or cells: Escherichia coli BL21
Kind of test: Affinity-based fluorescence polarization (FP) assay with FIH WT, without and with 365 nm irradiation. Particulars: read-out: Binding affinity to FIH^WT: Ki.
From the text: We also performed a reported affinity-based fluorescence polarization (FP) assay (Figure S6) , under light activation to measure the binding affinity of NBA-ZG-2291 to FIH (Figure A). […] These observations are consistent with the intact protein MS analyzes. We also evaluated the binding affinities of two negative controls to FIH, which were designed not to covalently react with Lys106.
as §1, §2
3.1 Fluorescence polarization (FP) assays1 with FIHWT and FIHK106A pET28a vectors encoding for full-length FIH with an N-terminal His6 tag or for FIH (K106A) with an N-terminal His6 tag were purchased from Nanjing Zoonbio Biotechnology. Both the FIHWT and FIHK106A protein were expressed from the respective plasmid in Escherichia coli BL21 at 20 °C for 16 h. E. coli cells were lysed and the lysate were clarified by centrifugation. His6- […]
In general terms: In fluorescence polarisation assays a small probe gives low polarisation when free and higher when bound to something large.

T1 sequence (Q9NWT6 whole entry K106A): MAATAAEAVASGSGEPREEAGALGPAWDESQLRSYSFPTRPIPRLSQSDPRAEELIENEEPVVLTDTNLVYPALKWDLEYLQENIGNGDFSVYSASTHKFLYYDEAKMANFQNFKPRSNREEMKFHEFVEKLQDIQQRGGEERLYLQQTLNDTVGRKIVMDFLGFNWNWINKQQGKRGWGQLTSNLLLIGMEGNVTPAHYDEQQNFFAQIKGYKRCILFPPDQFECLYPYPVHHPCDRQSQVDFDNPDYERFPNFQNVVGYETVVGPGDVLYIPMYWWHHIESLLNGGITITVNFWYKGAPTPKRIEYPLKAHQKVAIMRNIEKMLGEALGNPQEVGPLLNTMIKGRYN
T2 sequence (Q9NWT6 whole entry): as the sequence (Q9NWT6 whole entry K106A) above, with A106K counted along it

By Ki is commonly meant a dissociation constant, usually derived from enzyme kinetics or from competition with a known ligand. Take `O=C(O)CNC(=O)c1ncc(-c2cc(-c3cccc([N+](=O)[O-])c3)no2)cc1O` [Neg-1]: the Ki at FIH^K106A (irradiation time 0 min) is 271 ± 14 nM; on FIH^K106A (irradiation time 15 min), 275 ± 15 nM; at FIH^K106A (irradiation time 30 min), 268 ± 25 nM; on FIH^K106A (irradiation time 60 min), 266 ± 22 nM; on FIH^K106A (irradiation time 90 min) it was 264 ± 41 nM; at FIH^K106A (irradiation time 120 min), 270 ± 3 nM. Also, the inhibition constant (Ki) amounted to 423 ± 7 nM at FIH^WT (irradiation time 0 min); 408 ± 30 nM on FIH^WT (irradiation time 15 min); 459 ± 32 nM at FIH^WT (irradiation time 30 min); 427 ± 17 nM at FIH^WT (irradiation time 60 min); 396 ± 29 nM on FIH^WT (irradiation time 90 min); 428 ± 15 nM at FIH^WT (irradiation time 120 min).
As to `O=C(O)CNC(=O)c1ncc(-c2cc(-c3ccc(CO)cc3)no2)cc1O` [Neg-2], the inhibition constant (Ki) at FIH^K106A (irradiation time 0 min) worked out at 567 ± 37 nM; at FIH^K106A (irradiation time 15 min), 548 ± 61 nM; on FIH^K106A (irradiation time 30 min), 521 ± 50 nM; at FIH^K106A (irradiation time 60 min), 627 ± 17 nM; at FIH^K106A (irradiation time 90 min), 565 ± 10 nM; at FIH^K106A (irradiation time 120 min) it was 552 ± 38 nM. For the same molecule, the inhibition constant (Ki) amounted to 742 ± 65 nM on FIH^WT (irradiation time 0 min); 799 ± 69 nM at FIH^WT (irradiation time 15 min); 758 ± 13 nM on FIH^WT (irradiation time 30 min); 744 ± 30 nM at FIH^WT (irradiation time 60 min); 788 ± 36 nM at FIH^WT (irradiation time 90 min); 786 ± 35 nM at FIH^WT (irradiation time 120 min).
